Data reported in US5459126A, “Method for decreasing calcium uptake by cells using selected polycations” (California Institute of Technology, priority 1993, dated 1995).
Entries after “also recorded” stand apart in the source; their conditions may differ.

Columns and labels:
Assay type in all cases: cell-based
[1] = system: neonatal rat cardiomyocytes; test: 45Ca uptake by metabolically inhibited cardiomyocytes (iodoacetic acid + 2-deoxyglucose); details: for inhibition of calcium uptake: iodoacetic acid and 2-deoxyglucose
Description: (§1) Ca fluxes were measured by an on-line isotopic technique (13). The myocytes were cultured onto scintillant-containing discs which were mounted in a flow cell so that the cells were in direct contact with perfusate. The flow cell was placed between two opposing […] tubes. Cell-associated Ca was then recorded in counts per minute. ^45 Ca^2+ is a low energy beta-emitter. The radioactivity contained within the perfusate is counted with very low efficiency (<5%) whereas that within the cells is counted with an efficiency of 39%. In all of the examples the cells were initially perfused with non isotopic solution to remove any debris. Perfusion with ^45 Ca^2+ containing solution was then commenced at 10 ml/minute and continued until the cells were labelled to asymptote. This normally took 25-30 minutes. The flow cell was then drained and refilled with a solution containing hydrogen peroxide. The cells were then incubated for 60 minutes with continuous recording of ^45 Ca labeling (no flow) prior to washout with non-isotopic perfusate.
(§2) At the end of each experiment the discs were removed from the flow cell, allowed to dry and the cells were scraped onto a pre-weighed piece of filter paper. This was placed in an oven (>100° C.) overnight and then weighed, permitting determination of the cellular dry weight. The specific activity of each isotopic solution was measured in a […] (Beckman Instruments) and cell-associated Ca was expressed in mmoles/kg dry cellular weight. The cell cultures were maintained at 37° C.
Exposure of neonatal rat cardiomycytes to 0.05 mM iodoacetic acid (IAA), as a glycolytic inhibitor, and 0.5 mM 2-deoxyglucose (2-DOG), as a non-metabolizable substrate, produces a graded depletion in intracellular ATP and induces a significant Ca leak. In the following example involving metabolic inhibition, these two compounds were included in the incubation medium. 2-DOG was added directly and IAA was added from a 1 M stock solution, dissolved in water. The concentration in the culture media was 0.5 mM for 2-DOG and 0.05 mM for IAA.

mammalian cells = test: calcium uptake inhibition in cell culture, noxious stimulus not specified
[2] = system: neonatal rat cardiomyocytes; test: 45Ca uptake by cultured cardiomyocytes exposed to hydrogen peroxide (free radical attack), on-line isotopic technique
Description: Protamine is a strong polycationic polypeptide used extensively for heparin reversal after cardiopulmonary bypass. The drug is known to be negatively inotropic. The neonatal rat cardiomyocytes were cultured according to the procedure described by Frank et al.(13).
as §1, with “This normally took 25-30 minutes.” left out
After asymptotic labeling with ^45 Ca, the cells were perfused with a solution containing protamine sulfate at varying concentrations. […] The flow cell was then drained and refilled with a solution containing 50 μM H2 O2 and protamine. The procedure was repeated with protamine in varying concentrations: 1 μM (n=4); 5 μM (n=6) and 50 μM (n=6).
as §2

[3] = calcium leak caused by metabolic inhibition
[4] = calcium leak caused by hydrogen peroxide

protamine
effect on calcium uptake ([1]; concentrations below 5 μM, 0.05 mM IAA + 0.5 mM 2-DOG): did not exert a significant effect
effect on calcium uptake ([1]; concentrations of 5 μM and higher, 0.05 mM IAA + 0.5 mM 2-DOG): prevention of calcium uptake; also recorded: dramatic drop in calcium uptake
effect on calcium overload (mammalian cells; cell culture concentrations of 5 μM and above): completely prevent calcium overload
effect on Ca overload ([2]; protamine 1 μM, 50 μM H2O2, 60 min incubation): no effect
effect on Ca overload / calcium uptake ([2]; protamine 5 μM, 50 μM H2O2, 60 min incubation): prevention of calcium uptake; also recorded: completely prevented the Ca overload
effect on Ca overload ([2]; protamine concentration above 5 μM (50 μM tested), 50 μM H2O2): no additional effect
effect of protamine on Ca overload after neutralizing its positive charge with heparin ([2]; protamine plus heparin, H2O2): completely inhibited
Ca uptake on perfusion with the agent alone ([2]; protamine sulfate at varying concentrations, after asymptotic 45Ca labeling, before H2O2): did not significantly alter Ca uptake

Gentamicin
amount required to obtain any significant level of calcium uptake inhibition (mammalian cells): 1.5 mM

CCCCCCCCCCCC[N+](C)(C)C.[Br-] [DDTMA, dodecyltrimethylammonium bromide]
inhibition of calcium uptake ([1]; 50 μM): significant inhibition of calcium uptake

hexamedronium bromide [Polybrene]
inhibition of calcium leak [1, 3]: inhibited the calcium leak
threshold concentration above which inhibition was significant [1, 3]: 25 µM
effect on calcium uptake ([1]; polybrene 25 μM, metabolically inhibited cells (FIG. 5)): prevention of calcium uptake
inhibition of calcium leak [2, 4]: inhibited the calcium leak
threshold concentration above which inhibition was significant [2, 4]: 25 µM
effect on calcium uptake ([2]; polybrene 25 μM, free radical attack (FIG. 4)): prevention of calcium uptake

polymyxin B sulfate [PXB]
inhibition of calcium uptake ([1]; 100 μM): substantially inhibited
